Measurements reported in the NIST ThermoML archive (doi:10.1021/je900703f).
Numbers after ± are expanded uncertainties.

Conditions: Liquid

FC(F)=C(F)C(F)(F)F [hexafluoropropene]
Conditions | vapor or sublimation pressure [kPa]
263.17 K | 224.5 ± 1.7
273.16 K | 324.4 ± 2.2
293.12 K | 641 ± 4.1
313.11 K | 1099.4 ± 7
333.11 K | 1788.2 ± 11
353.14 K | 2778.2 ± 17
